Laboratory results as given in patent US9023789B2, “Amylin analogs and pharmaceutical compositions thereof” (Novo Nordisk A/S, priority 2012, dated 2015).
In brackets after ≈: the same amount, converted by molar mass. Like-named read-outs stand apart in the source and are kept apart here. Numbered stars: 1 amine (or outer) side, 2 acyl side, 3 side chain; on linkers, the order of the positions; unused ones are H or OH. Bridge positions count the residues as written; N and C are the ends. Side chains are listed from the residue outwards. Peptide text beside a SMILES is read from it. * marks the point of attachment. C20 diacid = O=C(O)CCCCCCCCCCCCCCCCCCC(=O)*; γGlu = O=C(O)[C@H](CCC(=O)[*:2])N[*:1]

What was measured:
[1] = ASSAY (X) pK, determination of T½ in rat; type: in vivo; conditions: male, Sprague Dawley, plasma, iv, 20 nmol/kg
[2] = ASSAY (IV) determination of solubility; type: physicochemical
Method in brief: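 Polypeptide in water at […] mixed 1:1 with 100 mM buffers of pH 3.0-8.0 (glycylglycine pH 3-5, bistrispropane pH 6-8). Held 18 h at room temperature, then centrifuged; concentration remaining in solution measured by UPLC.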

Male Sprague-Dawley rats = test: ASSAY (XI) single subcutaneous administration, food intake monitored for 48 hours in rats; type: in vivo, rat; conditions: for Food intake red (%) 0-24 h / Food intake red (%) 24-48 h: single s.c., compared to vehicle
Description: Assay (XI)—Effect from Single Subcutaneous Administration of Analogue on Plasma Calcium in Rats
Male Sprague-Dawley rats (Taconic Europe, ˜250 g at test date) were acclimatized to reversed day light cycle (lights on from 10 PM to 10 AM) and single housing in online food intake monitoring system (Ellegaard MBRose, Denmark) prior to study start. […] Data are illustrated in graphs as mean±SEM.

Male Wistar rats = test: ASSAY (XII) effect from single subcutaneous administration on plasma calcium in rats; type: in vivo, rat; conditions: for Plasma calcium red (%) 0-12 h (maximal): single s.c., compared to vehicle
Method: Assay (XII)—Effect from Single Subcutaneous Administration of Analogue on Plasma Calcium in Rats
Male Wistar rats (Taconic Europe, ˜250 g at test date) were acclimatized to handling prior to the study. Rats were divided in groups of five and subcutaneously dosed with test compound at time=0. At time T=−15 min; 1 h, 2 h, 4 h, 7 h, 12 h, and 24 h a blood sample was obtained and heparin stabilized plasma was analysed for total calcium (Cobas, Hitachi). Data are illustrated in graphs as mean±SEM.

[3] = bistrispropane buffer, pH 6.5, read-out: Solubility pH 6.5 Concentration
[4] = bistrispropane buffer, pH 7.5, read-out: Solubility pH 7.5 Concentration
[5] = bistrispropane buffer, pH 6.0, read-out: Solubility pH 6.0 Concentration
[6] = bistrispropane buffer, pH 7.0, read-out: Solubility pH 7.0 Concentration
[7] = bistrispropane buffer, pH 8.0, read-out: Solubility pH 8.0 Concentration
[8] = glycylglycine buffer, pH 3.0, read-out: Solubility pH 3.0 Concentration
[9] = glycylglycine buffer, pH 4.0, read-out: Solubility pH 4.0 Concentration
[10] = glycylglycine buffer, pH 5.0, read-out: Solubility pH 5.0 Concentration

| half-life [1] [h] | solubility at 18 h [2, 3] [µM] | solubility at 18 h [2, 4] [µM] | solubility at 18 h [2, 5] [µM] | solubility at 18 h [2, 6] [µM] | solubility at 18 h [2, 7] [µM] | solubility at 18 h [2, 8] [µM] | solubility at 18 h [2, 9] [µM] | solubility at 18 h [2, 10] [µM] | Plasma calcium red (%) 0-12 h (maximal) (Male Wistar rats; 30 nmol/kg) [%] | Plasma calcium red (%) 0-12 h (maximal) (Male Wistar rats; 10 nmol/kg) [%] | Structure (SMILES) | Food intake red (%) 0-24 h (Male Sprague-Dawley rats; 30 nmol/kg) [%] | Food intake red (%) 24-48 h (Male Sprague-Dawley rats; 30 nmol/kg) [%] | food intake monitored over 48 hours (Male Sprague-Dawley rats; single subcutaneous administration, 30 nmol/kg, versus vehicle) | suppression of plasma calcium level relative to vehicle (Male Wistar rats; single subcutaneous 30 nmol/kg, monitored over 24 hours) | Food intake red (%) 0-24 h (Male Sprague-Dawley rats; 3 nmol/kg) [%] | Food intake red (%) 24-48 h (Male Sprague-Dawley rats; 3 nmol/kg) [%] |
| --- | --- | --- | --- | --- | --- | --- | --- | --- | --- | --- | --- | --- | --- | --- | --- | --- | --- |
| 7 | ≥ 200 | ≥ 200 | ≥ 200 | ≥ 200 | 178 (≈ 786 µg/mL) | ≥ 200 | ≥ 200 | ≥ 200 | – | – | CC[C@H](C)[C@H](NC(=O)[C@H](C)NC(=O)CNC(=O)[C@H](Cc1ccccc1)NC(=O)[C@H](CC(N)=O)NC(=O)[C@@H]1CCCN1C(=O)[C@H](CO)NC(=O)[C@H](CO)NC(=O)[C@H](Cc1c[nH]cn1)NC(=O)[C@H](CCCNC(=N)N)NC(=O)[C@H](CC(C)C)NC(=O)[C@H](Cc1ccccc1)NC(=O)[C@H](Cc1c[nH]cn1)NC(=O)[C@H](C)NC(=O)[C@H](CC(C)C)NC(=O)[C@H](CCCNC(=N)N)NC(=O)[C@H](CCC(N)=O)NC(=O)[C@@H](NC(=O)[C@H](C)NC(=O)[C@@H]1CSSC[C@H](NC(=O)[C@@H](N)CCCCNC(=O)CC[C@H](NC(=O)CCCCCCCCCCCCCCCCCCC(=O)O)C(=O)O)C(=O)N[C@@H](CC(N)=O)C(=O)N[C@@H]([C@@H](C)O)C(=O)N[C@@H](C)C(=O)N[C@@H]([C@@H](C)O)C(=O)N1)[C@@H](C)O)C(=O)N1CCC[C@H]1C(=O)N[C@@H](CO)C(=O)N[C@@H](CO)C(=O)N[C@H](C(=O)N[C@@H](CC(N)=O)C(=O)N[C@H](C(=O)NCC(=O)N1CCC[C@H]1C(=O)N[C@@H](CC(N)=O)C(=O)N[C@H](C(=O)N[C@@H](Cc1ccc(O)cc1)C(N)=O)[C@@H](C)O)C(C)C)[C@@H](C)O [Example 67] (H-K([γGlu-C20 diacid])CNTATCATQRLAHFLRHSSPNFGAIPSSTNVGPNTY-NH2; disulfide 2-7 (inferred); N-terminus assumed) | – | – | – | – | – | – |
| – | ≥ 200 | ≥ 200 | ≥ 200 | ≥ 200 | 147 (≈ 654 µg/mL) | ≥ 200 | ≥ 200 | ≥ 200 | 9 | – | CC[C@H](C)[C@H](NC(=O)[C@H](C)NC(=O)CNC(=O)[C@H](Cc1ccccc1)NC(=O)[C@H](CC(N)=O)NC(=O)[C@@H]1CCCN1C(=O)[C@H](CO)NC(=O)[C@H](CO)NC(=O)[C@H](Cc1c[nH]cn1)NC(=O)[C@H](CCCNC(=N)N)NC(=O)[C@H](CC(C)C)NC(=O)[C@H](Cc1ccccc1)NC(=O)[C@H](CCC(=O)O)NC(=O)[C@H](C)NC(=O)[C@H](CC(C)C)NC(=O)[C@H](CCCNC(=N)N)NC(=O)[C@H](CCC(N)=O)NC(=O)[C@@H](NC(=O)[C@H](C)NC(=O)[C@@H]1CSSC[C@H](NC(=O)[C@@H](N)CCCCNC(=O)CC[C@H](NC(=O)CCCCCCCCCCCCCCCCCCC(=O)O)C(=O)O)C(=O)N[C@@H](CC(N)=O)C(=O)N[C@@H]([C@@H](C)O)C(=O)N[C@@H](C)C(=O)N[C@@H]([C@@H](C)O)C(=O)N1)[C@@H](C)O)C(=O)N1CCC[C@H]1C(=O)N[C@@H](CO)C(=O)N[C@@H](CO)C(=O)N[C@H](C(=O)N[C@@H](CC(N)=O)C(=O)N[C@H](C(=O)NCC(=O)N1CCC[C@H]1C(=O)N[C@@H](CCCNC(=N)N)C(=O)N[C@H](C(=O)N[C@@H](Cc1ccc(O)cc1)C(N)=O)[C@@H](C)O)C(C)C)[C@@H](C)O [Example 117] (H-K([γGlu-C20 diacid])CNTATCATQRLAEFLRHSSPNFGAIPSSTNVGPRTY-NH2; disulfide 2-7; N-terminus assumed) | 61 | 4 | reduces food intake | None of the example compounds at 30 nmol/kg trigger a notable suppression of the calcium level | – | – |
| – | ≥ 200 | ≥ 200 | ≥ 200 | ≥ 200 | ≥ 200 | ≥ 200 | ≥ 200 | ≥ 200 | 26 | – | CC[C@H](C)[C@H](NC(=O)[C@H](C)NC(=O)CNC(=O)[C@H](Cc1ccccc1)NC(=O)[C@H](CC(N)=O)NC(=O)[C@@H]1CCCN1C(=O)[C@H](CO)NC(=O)[C@H](CO)NC(=O)[C@H](Cc1c[nH]cn1)NC(=O)[C@H](CCCNC(=N)N)NC(=O)[C@H](CC(C)C)NC(=O)[C@H](Cc1ccccc1)NC(=O)[C@H](CCC(=O)O)NC(=O)[C@H](C)NC(=O)[C@H](CC(C)C)NC(=O)[C@H](CCCNC(=N)N)NC(=O)[C@H](CCC(N)=O)NC(=O)[C@@H](NC(=O)[C@H](C)NC(=O)[C@@H]1CSSC[C@H](NC(=O)[C@@H](N)CCCCNC(=O)CC[C@H](NC(=O)CCCCCCCCCCCCCCCCCCC(=O)O)C(=O)O)C(=O)N[C@@H](CC(N)=O)C(=O)N[C@@H]([C@@H](C)O)C(=O)N[C@@H](C)C(=O)N[C@@H]([C@@H](C)O)C(=O)N1)[C@@H](C)O)C(=O)N1CCC[C@H]1C(=O)N[C@@H](CO)C(=O)N[C@@H](CO)C(=O)N[C@H](C(=O)N[C@@H](CC(N)=O)C(=O)N[C@H](C(=O)NCC(=O)N1CCC[C@H]1C(=O)N[C@@H](Cc1c[nH]cn1)C(=O)N[C@H](C(=O)N[C@@H](Cc1ccc(O)cc1)C(N)=O)[C@@H](C)O)C(C)C)[C@@H](C)O [Example 118] (H-K([γGlu-C20 diacid])CNTATCATQRLAEFLRHSSPNFGAIPSSTNVGPHTY-NH2; disulfide 2-7) | 77 | 30 | – | – | 43 | 1 |
| – | ≥ 200 | ≥ 200 | ≥ 200 | ≥ 200 | 165 (≈ 752 µg/mL) | ≥ 200 | ≥ 200 | ≥ 200 | 11 | 3 | CC[C@H](C)[C@H](NC(=O)[C@H](C)NC(=O)CNC(=O)[C@H](Cc1ccccc1)NC(=O)[C@H](CC(N)=O)NC(=O)[C@@H]1CCCN1C(=O)[C@H](CO)NC(=O)[C@H](CO)NC(=O)[C@H](Cc1c[nH]cn1)NC(=O)[C@H](CCCNC(=N)N)NC(=O)[C@H](CC(C)C)NC(=O)[C@H](Cc1ccccc1)NC(=O)[C@H](CCC(=O)O)NC(=O)[C@H](C)NC(=O)[C@H](CC(C)C)NC(=O)[C@H](CCCNC(=N)N)NC(=O)[C@H](CCC(N)=O)NC(=O)[C@@H](NC(=O)[C@H](C)NC(=O)[C@@H]1CSSC[C@H](NC(=O)[C@@H](N)CCCCNC(=O)CC[C@H](NC(=O)CC[C@H](NC(=O)CCCCCCCCCCCCCCCCCCC(=O)O)C(=O)O)C(=O)O)C(=O)N[C@@H](CC(N)=O)C(=O)N[C@@H]([C@@H](C)O)C(=O)N[C@@H](C)C(=O)N[C@@H]([C@@H](C)O)C(=O)N1)[C@@H](C)O)C(=O)N1CCC[C@H]1C(=O)N[C@@H](CO)C(=O)N[C@@H](CO)C(=O)N[C@H](C(=O)N[C@@H](CC(N)=O)C(=O)N[C@H](C(=O)NCC(=O)N1CCC[C@H]1C(=O)N[C@@H](Cc1c[nH]cn1)C(=O)N[C@H](C(=O)N[C@@H](Cc1ccc(O)cc1)C(N)=O)[C@@H](C)O)C(C)C)[C@@H](C)O [Example 124] (H-K([γGlu-γGlu-C20 diacid])CNTATCATQRLAEFLRHSSPNFGAIPSSTNVGPHTY-NH2; disulfide 2-7 (inferred)) | 73 | 38 | – | – | – | – |
